This is an account of results in patent US8461119B2, “Agents that modulate Eph receptor activity” (The Burnham Institute, priority 2002, dated 2013).

For assay [1], the target named is T1, EphA2 (Mus musculus, UniProt Q03145).
T1 construct: purchased R&D Systems
The assay can be described thus: Immobilized biotinylated synthetic peptide capturing Eph receptor Fc (ELISA). Format: binding. The settings on record: biotinylated peptide on streptavidin-coated wells.
Target sequence in this assay (Q03145 with tags, fused parts or gaps limits assumed): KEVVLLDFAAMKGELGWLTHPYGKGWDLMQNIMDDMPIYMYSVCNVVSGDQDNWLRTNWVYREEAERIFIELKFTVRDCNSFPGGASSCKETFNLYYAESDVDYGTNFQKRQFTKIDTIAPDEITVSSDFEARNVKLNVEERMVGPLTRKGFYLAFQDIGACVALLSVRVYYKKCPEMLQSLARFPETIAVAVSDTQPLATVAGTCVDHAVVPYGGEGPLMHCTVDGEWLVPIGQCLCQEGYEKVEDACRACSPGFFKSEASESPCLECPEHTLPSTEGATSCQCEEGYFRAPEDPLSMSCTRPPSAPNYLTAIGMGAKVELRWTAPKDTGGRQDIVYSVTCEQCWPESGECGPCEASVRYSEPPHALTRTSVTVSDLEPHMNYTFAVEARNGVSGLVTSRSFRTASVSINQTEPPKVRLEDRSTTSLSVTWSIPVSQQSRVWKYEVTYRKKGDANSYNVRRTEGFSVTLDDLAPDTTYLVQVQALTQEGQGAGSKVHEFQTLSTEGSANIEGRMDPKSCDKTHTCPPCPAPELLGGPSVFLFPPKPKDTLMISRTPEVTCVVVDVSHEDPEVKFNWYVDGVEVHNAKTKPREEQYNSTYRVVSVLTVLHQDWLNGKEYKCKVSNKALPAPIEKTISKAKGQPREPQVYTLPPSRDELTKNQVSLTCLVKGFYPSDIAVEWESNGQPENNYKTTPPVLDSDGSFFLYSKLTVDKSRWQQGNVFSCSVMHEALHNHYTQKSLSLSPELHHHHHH
Source text: (§3) Bound Eph receptors were detected with anti-human Fc antibody conjugated to alkaline phosphatase (AP) (Promega, Madison, Wis.). […] Substrates were 2,2′-azino-bis(3-ethylbenzthiazoline-6-sulfonic acid) for horseradish peroxidase and p-nitrophenyl phosphate for AP.

The target of assay [2] is T1, EphA2. The assay can be described thus: Ephrin-AP binding to Eph receptor-coated wells in presence of peptide. The settings on record: ephrin-A5-AP, ephrin-A6-AP.
Target sequence in this assay (Q03145 with tags, fused parts or gaps limits assumed): as above
Procedure: Ephrin binding to Eph receptor-coated plates was quantified using alkaline phosphatase (AP) fusion proteins of ephrin-A5 and ephrin-A6 (plasmids encoding these AP-fusions are described above). Diluted cell culture supernatants containing ephrin-A5-AP and ephrin-A6-AP were co-incubated with peptides in microtiter wells coated with EphA2 Fc or EphA4 Fc. Ephrins remaining bound after washing were detected by measuring AP activity.
The test system of assay [3] is MAP kinase. The assay can be described thus: MAP kinase phosphorylation in HUVE cells (immunoblot). Format: cell-based, human. From the text:
Cell lysates were used to immunoprecipitate EphA2 as described above or probed by immunoblotting with anti-phospho-p44/p42 MAPK antibody (Cell Signaling Technology, Beverly, Mass.) followed by an anti-mouse IgG peroxidase-conjugated antibody (Arnersham) and re-probed with an anti-ERK2 antibody (Santa Cruz Biotechnology, Santa Cruz, Calif.) followed by a secondary anti-rabbit IgG peroxidase-conjugated antibody (Amersham). Erk2 (p42 MAP kinase) is the major phosphorylated form present. EphA2 was immunoprecipitated (IP) and probed by immunoblotting with anti-phosphotyrosine (PTyr) or anti-EphA2 antibodies.

The target of assay [4] is T1, EphA2. The assay can be described thus: Peptide competition with phage clones on immobilized EphA2 Fc. Format: binding.
Target sequence in this assay (Q03145 26-538 limits assumed): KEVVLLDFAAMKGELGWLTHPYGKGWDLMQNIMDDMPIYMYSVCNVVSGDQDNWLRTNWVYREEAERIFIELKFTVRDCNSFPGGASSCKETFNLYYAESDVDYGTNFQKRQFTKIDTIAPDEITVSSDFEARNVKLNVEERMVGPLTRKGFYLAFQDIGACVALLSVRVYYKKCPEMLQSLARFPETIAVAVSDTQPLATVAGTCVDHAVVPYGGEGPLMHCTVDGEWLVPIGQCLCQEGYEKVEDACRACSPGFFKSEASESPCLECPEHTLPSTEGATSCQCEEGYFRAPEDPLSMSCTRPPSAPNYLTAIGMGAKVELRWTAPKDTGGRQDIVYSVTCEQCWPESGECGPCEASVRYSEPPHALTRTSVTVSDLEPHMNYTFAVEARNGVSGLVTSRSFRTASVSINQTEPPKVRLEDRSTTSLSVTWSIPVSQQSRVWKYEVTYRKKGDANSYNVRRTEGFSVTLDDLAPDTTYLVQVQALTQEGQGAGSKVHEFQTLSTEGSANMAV
Procedure: A histidine-tagged mouse EphA2 Fc fusion protein (R&D Systems, Minneapolis, Minn.) was incubated overnight at 4° C. in nickel-nitrilotriacetic acid (Ni-NTA)-coated ELISA plates at concentrations of 1-10 μg/ml in Tris-buffered saline (TBS) (150 mM NaCl, 50 mM Tris-HCl, pH 7.5). Wells were blocked with 0.5% bovine serum albumin (BSA) in TBS, and rinsed with binding buffer (TBS, 1 mM CaCl2, 0.1% Tween 20).
For peptide competition assays with phage clones, Ni-NTA microtiter wells coated with EphA2 Fc were incubated for 1 hour at room temperature with phage clones diluted between 1:600 and 1:9,000 in binding buffer (100 μl/well). Unbound phage were washed away and competing peptides were added for 1 hour. Alternatively, peptides and phage were co-incubated together.
Assay [5] has as its system EphA receptors. The assay can be described thus: Immobilized biotinylated synthetic peptide capturing Eph receptor Fc (ELISA). Format: binding. The settings on record: Fc fusion proteins of EphA receptors.
Source text: as §3
Assay [6] concerns EphB receptors. Described as above. Format: binding.
Source text: as §3
Assay [7] has as its target T2, EphA4 (Homo sapiens, UniProt P54764).
T2 construct: immobilized EphA4 receptor extracellular domain fused to a human Fc region
Briefly: Ephrin-AP binding to Eph receptor-coated wells in presence of peptide. The settings on record: for Antagonism of ephrin-A5 binding to EphA4: ephrin-A5 AP.
Procedure: Diluted cell culture supernatants containing ephrin-A5-AP and ephrin-A6-AP were co-incubated with peptides in microtiter wells coated with EphA2 Fc or EphA4 Fc. Ephrins remaining bound after washing were detected by measuring AP activity.

For assay [8], the system named is EphB4. Briefly: Binding specificity of phage clones on Eph receptor-coated plates. The settings on record: phage clones displaying the peptides.
Source text: (§4) Phage binding to Eph receptor-coated plates was quantified using an anti-phage antibody conjugated to horseradish peroxidase (M13 phage detection kit, Amersham Pharmacia Biotech., Piscataway, N.J.).
The test system of assay [9] is EphB4. Briefly: Binding specificity of synthetic peptides. The settings on record: immobilized synthetic peptide.
Source text: as §3
The subject of assay [10] is EphA7. Briefly: Binding selectivity of phage clones isolated on EphA7. How it is done:
(§1) Alternatively, peptides and phage were co-incubated together.
(§2) In this example additional phage panning experiments were performed to identify peptides that bind to EphA5 and EphA7 (FIG. 18A). EphA5 and EphA7 are two EphA receptors that are closely related to EphA4 but are differentially expressed in the developing and adult nervous system (Ellis, J. et al. 1995 Mechanisms of Development 52:319-341; Mori, T. et al 1995 Brain Res Mol Brain Res 34:154-160; Olivieri, G. & Miescher, G. C. 1999 J Histochem Cytochem 47:855-861; Zhang, J. H. et al 1997 Brain Res Mol Brain Res 47:202-214). Three different peptide sequences that bind each receptor were identified.

Assay [11] addresses T2, EphA4. Briefly: Binding selectivity of phage clones isolated on EphA4. Particulars: compared to other EphA or EphB4 receptors.
Source text: as §4
In this example phage display was used to identify peptides that bind to an EphA4 receptor. An M13 phage library displaying random 12-mer peptides was panned on the immobilized EphA4 receptor extracellular domain fused to a human Fc region (FIG. 12A). The phage clones remaining bound to EphA4 were eluted with a low pH solution and amplified.
For assay [12], the target named is T3, EphA4 (Mus musculus, UniProt Q03137).
T3 construct: antagonize ephrin-A3-induced tyrosine phosphorylation of endogenous EphA4; from tissue; host or cells: mouse hippocampal slices
The assay can be described thus: Ephrin-A3 Fc induced EphA4 tyrosine phosphorylation in hippocampal slices. Format: cell-based. The settings on record: micromolar peptide.

Assay [13] concerns the target T2, EphA4. The assay can be described thus: Binding specificity of synthetic peptides. The settings on record: compared to other EphA and EphB receptors.
Source text: as §3
In assay [14] the test system is neural crest cells. The assay can be described thus: Neural crest cell migration assay in chick trunk explants. Format: cell-based. Particulars: 24 hours, 13 μM KYL peptide or 10 μg/ml EphA4-Fc. How it is done: In this example to address whether the EphA4-binding peptides can inhibit endogenous ephrin-EphA4 physiological function, a neural crest cell migration assay (McLennan, R. & Krull, C. E. 2002 Gene Expr 10:295-305) was utilized. […] The migration of neural crest cells was determined by staining for HNK-1 for neural crest cells and ephrin-B1 to label the caudal sclerotome. […] Neural crest cells migrated properly into the rostral sclerotome in explants treated with control Fc.

In assay [15] the test system is EphA5. Briefly: Binding selectivity of phage clones isolated on EphA5. How it is done: as §1, §2

“Also recorded” adds a separate entry of the source. Read-outs that look alike come from different tables or passages of the source.

T3 sequence (Q03137 20-986): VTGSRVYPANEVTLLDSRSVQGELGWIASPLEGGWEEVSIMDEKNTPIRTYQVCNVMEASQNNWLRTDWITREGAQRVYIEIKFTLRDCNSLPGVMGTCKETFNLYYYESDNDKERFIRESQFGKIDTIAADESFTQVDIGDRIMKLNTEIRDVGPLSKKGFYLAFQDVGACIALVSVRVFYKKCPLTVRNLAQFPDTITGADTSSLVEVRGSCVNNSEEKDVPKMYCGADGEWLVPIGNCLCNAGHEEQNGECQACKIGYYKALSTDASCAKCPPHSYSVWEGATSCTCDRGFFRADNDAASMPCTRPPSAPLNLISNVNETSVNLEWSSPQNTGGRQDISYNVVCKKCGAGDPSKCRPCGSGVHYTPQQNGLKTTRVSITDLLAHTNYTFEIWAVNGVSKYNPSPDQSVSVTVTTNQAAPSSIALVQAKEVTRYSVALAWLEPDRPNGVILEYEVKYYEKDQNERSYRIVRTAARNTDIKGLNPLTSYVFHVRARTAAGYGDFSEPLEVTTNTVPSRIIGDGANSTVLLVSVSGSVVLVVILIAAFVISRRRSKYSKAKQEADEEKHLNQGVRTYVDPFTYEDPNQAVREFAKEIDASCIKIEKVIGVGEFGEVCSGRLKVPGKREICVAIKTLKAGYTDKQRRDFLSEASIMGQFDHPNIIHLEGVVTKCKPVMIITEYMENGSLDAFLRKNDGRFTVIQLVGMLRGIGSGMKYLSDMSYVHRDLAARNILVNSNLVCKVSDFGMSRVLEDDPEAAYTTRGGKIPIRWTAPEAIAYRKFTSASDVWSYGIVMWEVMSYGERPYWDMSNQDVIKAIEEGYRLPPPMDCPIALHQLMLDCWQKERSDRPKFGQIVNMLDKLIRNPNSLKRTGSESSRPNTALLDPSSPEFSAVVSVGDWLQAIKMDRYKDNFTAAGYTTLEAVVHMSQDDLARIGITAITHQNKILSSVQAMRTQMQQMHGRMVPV
T2 sequence (P54764 20-547 limits assumed, species assumed): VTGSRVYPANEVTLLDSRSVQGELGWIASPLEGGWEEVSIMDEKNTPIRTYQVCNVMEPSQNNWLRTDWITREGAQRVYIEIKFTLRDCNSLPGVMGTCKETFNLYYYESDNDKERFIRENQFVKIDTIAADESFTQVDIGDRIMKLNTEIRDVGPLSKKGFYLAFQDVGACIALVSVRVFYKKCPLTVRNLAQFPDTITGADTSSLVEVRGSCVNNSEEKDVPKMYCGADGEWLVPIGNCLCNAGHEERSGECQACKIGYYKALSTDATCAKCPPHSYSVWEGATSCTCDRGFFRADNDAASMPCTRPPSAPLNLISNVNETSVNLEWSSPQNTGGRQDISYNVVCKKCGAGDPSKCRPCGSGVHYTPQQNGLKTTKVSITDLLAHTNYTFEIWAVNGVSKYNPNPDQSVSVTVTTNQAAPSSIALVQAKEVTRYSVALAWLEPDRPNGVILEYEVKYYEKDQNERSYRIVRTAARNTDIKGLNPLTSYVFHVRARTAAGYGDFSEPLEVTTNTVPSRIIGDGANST

Consider `CSCC[C@H](NC(=O)[C@H](CCSC)NC(=O)[C@@H]1CCCN1C(=O)[C@@H](NC(=O)[C@H](CO)NC(=O)[C@H](CC(=O)O)NC(=O)[C@@H]1CCCN1C(=O)[C@H](Cc1ccc(O)cc1)NC(=O)[C@H](C)NC(=O)[C@H](CO)NC(=O)[C@@H](N)Cc1ccc(O)cc1)C(C)C)C(=O)N[C@@H](CO)C(=O)O` [YSA], for which, in assay [1], the “Binding of immobilized synthetic peptide to EphA2 Fc” value (“Binding … to EphA2 Fc” for short) is recorded as “bound to EphA2”. Moreover, in assay [2], the “Inhibition of ephrin binding to immobilized EphA2” value (“Inhibition … to immobilized EphA2” below) is recorded as “inhibit, in a concentration dependent manner”. In [3], the MAP kinase activation result was “activates a previously described Eph2A signaling pathway that suppresses MAP kinase activation”. Moreover, the “Competition of synthetic peptide with phage binding to immobilized EphA2” value (“Competition of synthetic peptide” for short) in assay [4] is “competes with SWL phage”. Moreover, the “Binding of immobilized synthetic peptide to EphA receptors (other than or including EphA2)” value (“Binding … (other than or including EphA2)” for short) in assay [5] is recorded as “not to other EphA receptors”. Also, in [6], the “Binding of synthetic peptide to receptors of the EphB family” value is “lack the ability to bind to receptors of the EphB family”. In addition, the “Inhibition of A-ephrin binding to immobilized EphA4 by EphA2-binding peptides” value in assay [7] (ephrin-A5-AP, ephrin-A6-AP) is listed as “not EphA4”.

Take “A3 peptide: Twelve-mer synthetic peptide corresponding to the G-H loop of ephrin-A3”: in assay [1], the “Binding … to EphA2 Fc” value was “bind EphA2, albeit more weakly than the YSA peptide”. The “Inhibition … to immobilized EphA2” value in [2] is listed as “did not compete with ephrin-A5 for binding to EphA2”. Besides, the “Competition of synthetic peptide” value in [4] is “did not inhibit phage binding”. The “Binding … (other than or including EphA2)” value in assay [5] is recorded as “bind promiscuously to all EphA receptors”.

As to “A5 peptide: Twelve-mer synthetic peptide corresponding to the A-A′ β-strand of ephrin-A5”, the “Binding … to EphA2 Fc” value in assay [1] is on record as “bind EphA2, albeit more weakly than the YSA peptide”. Moreover, the “Inhibition … to immobilized EphA2” value in assay [2] was “enhanced both phage and ephrin-A5 binding to EphA2”. Also, the “Competition of synthetic peptide” value in assay [4] is “enhanced both phage and ephrin-A5 binding to EphA2”. Moreover, in assay [5], the “Binding … (other than or including EphA2)” value is given as “bind promiscuously to all EphA receptors”.

For the compound DALNDWLLFRPW (DAL peptide), the “Binding of phage clones to EphB4 Fc” value in assay [8] is on record as “bound to EphB4 Fc”. Besides, the “EphB4 bound compared to other EphB family receptors” value in assay [9] is on record as “four-fold”.

Turning to IPWTQHMAMSPM (IPW peptide), the “Binding of phage clones to EphB4 Fc” value in [8] was “bound to EphB4 Fc”.

For KHLPFYPHPTSP (EphA7-binding peptide), the “Binding to further EphA receptors of EphA7-binding peptides” value (“Binding to further EphA receptors” below) in assay [10] was “also binds to EphA3, EphA5, and EphA6”.

As for KYLPYWPVLSSL (KYL peptide), the “Binding preference of phage clones for EphA4” value (“Binding preference” for short) in [11] was “preferential binding to EphA4”. The “Antagonism of ephrin-A5 binding to EphA4” value in assay [7] was “antagonize ephrin-A5 binding to EphA4 in a concentration-dependent manner”. In assay [7] (ephrin-A5 AP binding to EphA4), the “Peptide concentration that almost completely inhibited ephrin binding” value was 1 µM. In addition, the “Selectivity of block of ephrin-A5 AP binding to EphA4 compared to other EphA receptors” value in [7] (peptide 50 μM) is “preferentially”. Moreover, the “Ephrin-A3-induced tyrosine phosphorylation (activation) of endogenous EphA4” value in assay [12] is “blocked EphA4 tyrosine phosphorylation at lower concentrations than the APY and VTM peptides; also recorded: antagonize ephrin-A3 induced activation of endogenous EphA4”. Besides, in [13], the “Selectivity of synthetic peptide for EphA4” value was “exhibited some binding to other EphA and EphB receptors”. In assay [14], the “Migration of neural crest cells” value is given as “ectopic migration of neural crest cells into the caudal half-sclerotome”.

Consider NHWLDTLFPMHM (EphA4-binding peptide), for which, in assay [11], the “Binding preference” value is “preferential binding to EphA4”.

Consider SGHQLLLNKMPN (SGH peptide), for which the “Binding of phage clones to EphB4 Fc” value in assay [8] is recorded as “bound to EphB4 Fc”.

Consider SLRDTYMRAKVL (SLR peptide), for which the “Binding selectivity of peptides isolated on EphA5” value (shortened to “Binding selectivity”) is “selective binding to this receptor” in assay [15] and “selectively bind to EphA5” in assay [15] (listed as SLR).

For the compound SVSVGMKPSPRP (SVS peptide), in assay [10], the “Binding to further EphA receptors” value is “also binds to EphA3 and EphA6”.

VADRYAVYWNSSNPR (extended A5 peptide): in assay [1], the “Binding … to EphA2 Fc” value was “exhibits a similar weak binding”.

Take VTMEAINLAFPG (VTM peptide): the “Binding preference” value in assay [11] was “preferential binding to EphA4”. In addition, the “Antagonism of ephrin-A5 binding to EphA4” value in assay [7] is “antagonize ephrin-A5 binding to EphA4 in a concentration-dependent manner”. Besides, in assay [7] (inhibition curves at different ephrin concentrations), the “Mode of inhibition of ephrin binding” value is on record as “competitively inhibits ephrin binding”. The “Ephrin-A3-induced tyrosine phosphorylation (activation) of endogenous EphA4” value in assay [12] is recorded as “antagonize ephrin-A3 induced activation of endogenous EphA4”.

As to WASHAPYWPHPP (EphA7-binding peptide), the “Binding to further EphA receptors” value in assay [10] was “also binds to EphA3”.

Consider WDCNGPYCHWLG (WDC peptide), for which the “Binding selectivity” value is listed as “selective binding to this receptor” in assay [15] and “selectively bind to EphA5” in assay [15] (listed as WDC).

Consider WTFPVLWDDKHP (WTF peptide), for which the “Binding selectivity” value in assay [15] is “also binds to EphA6”; in assay [15] (listed as WTF), “binds to both EphA5 and EphA6”.
